Here are results for 15 molecules from US20130287807A1, “COMPOUNDS FOR TREATING SYMPTOMS ASSOCIATED WITH PARKINSON'S DISEASE” (priority 2008, published 2013).

Ends that are not written are not given here.

In the first assay the test system is monoclonal antibody MV-002. The experiment in a line: In vitro binding assay (ELISA), BSA-coupled peptides, parental antibody MV-002. The note with it: Table 1 (MV-002); peptide-BSA on plate, compared to original epitope. The arrangement: species or system C57/B16 mice. An outline of the steps:
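BSA-conjugated phage-display peptides and variants coated on ELISA plates at 1 μM, then incubated with the monoclonal antibody used for the screen. Binding capacity given as 1:X, the dilution factor of the parental antibody; Ac- marks acetylated amino acids.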
(In general: In an ELISA, binding on a coated surface is turned into a signal by an enzyme label.)
For the molecule SHTRLYFC [p4403], the “Binding Capacity” value is listed as 1 (weak binding :<40000).

As for HMRLFFNC [p4670], the “Binding Capacity” value is listed as 3 (strong binding :>320000).

HQKMIFAC [p4675]: the “Binding Capacity” value is reported as 3 (strong binding :>320000).

As to GEIYFERC [p4681], the “Binding Capacity” value was 3 (strong binding :>320000).

Regarding GEIWFEGC [p4680], the “Binding Capacity” value was 3 (strong binding :>320000).

Another assay concerns Aβ/truncated/modified forms. The experiment in a line: In vivo characterisation of mimotopes: detection of Aβ/truncated/modified forms. More on the design: species or system C57/B16 mice; key: +: All peptides listed in table 4 mount specific immune reactions against full length and/or truncated and modified forms of Aβ or fragments thereof. The note with it: Table 4, MV-002 derived mimotopes. Here is the method: (§1) Inhibiting as well as non-inhibiting peptides were coupled to KLH and injected into mice (wildtype C57/B16 mice; subcutaneous injection into the flank) together with an appropriate adjuvant (aluminium hydroxide). Animals were vaccinated 3-6 times in biweekly intervals and sera were taken biweekly as well. Titers to injected peptides, as well as to an irrelevant peptide were determined with every serum. Furthermore, titers against the recombinant human Aβ protein, and against original peptides were determined respectively. In general sera were analysed by reaction against peptides coupled to Bovine Serum Albumin (BSA) and recombinant full length proteins which were immobilised on ELISA plates. Titers were determined using anti mouse IgG specific antibodies. For detailed results see FIGS. 15, 16 and 17 respectively and FIGS. 23, 24 and 25 respectively.
(§2) Female C57/b16 mice, 5-6 mice per group, were subcutaneously immunized with 30 μg peptide coupled to KLH. Control groups were administered original epitope-KLH conjugates respectively. As adjuvant alum was used (always 1 mg per mouse). […] The in vitro ELISA assay to determine the antibody titer was performed with sera of single mice after each vaccination in a two week interval (see FIGS. 15 and 16 respectively). The wells of the ELISA plate were coated with mimotope-BSA conjugate and an irrelevant peptide-BSA conjugate (negative control). The positive control was performed by reaction of the parental antibody with the respective mimotope-BSA conjugate. The detection was performed with anti-mouse IgG. Additionally, recombinant proteins were immobilised on ELISA plates and sera reacted accordingly. FIGS. 15 to 17 show representative examples for assays used to characterise mimotopes in vivo.
as §2, with “FIGS. 25” for “FIGS. 15”, “and 26” for “and 16”, “respectively). Titers were calculated as OD max/2 in all figures shown.” for “respectively).”, “FIGS. 23, 24 and 25” for “FIGS. 15 to 17”
As for SHTRLYFC [p4403], the “Detection of Aβ/truncated/modified forms” value is listed as “+”.

For the molecule HMRLFFNC [p4670], the “Detection of Aβ/truncated/modified forms” value was “+”.

For the molecule HQKMIFAC [p4675], the “Detection of Aβ/truncated/modified forms” value is on record as “+”.

For GEIYFERC [p4681], the “Detection of Aβ/truncated/modified forms” value is given as “+”.

For GEIWFEGC [p4680], the “Detection of Aβ/truncated/modified forms” value is “+”.

The subject of a further assay is monoclonal antibody MV-002. Kind of assay: In vitro inhibition assay (ELISA), MV-002 binding to original epitope. More on the design: species or system C57/B16 mice. The note with it: MV-002 mimotopes. As for the experimental part: Different amounts of peptides (concentrations ranging from 10 μg to 0.08 μg; serial dilutions; for MV-002: concentrations ranging from 5 μg to 0.03 μg; serial dilutions), derived from Phage Display were incubated with the monoclonal antibody that was used for the screening procedure. Peptides diminishing subsequent binding of the antibody to the original epitope coated on ELISA plates were considered as inhibiting in this assay.
Legend to Table 2: the inhibition capacity is coded by the following code: Weak inhibition means more peptide is required to lower AB binding than with the original epitope; strong inhibition means similar peptide amounts are required for mimotope and original epitope for lowering AB binding. Mimotopes are compared to the original peptide as standard. OD at 5 ug peptide used in the assay is used to calculate the competition capacity compared to original peptide.
In the case of SHTRLYFC [p4403], the “inhibition of binding of monoclonal antibody in in vitro competition experiments” value (“inhibition … in vitro competition experiments” below) is “without inhibition capacity”.

As for HMRLFFNC [p4670], the “inhibition … in vitro competition experiments” value is listed as “active in in vitro inhibition assays”.

HQKMIFAC [p4675]: the “inhibition … in vitro competition experiments” value was “active in in vitro inhibition assays”.

For GEIYFERC [p4681], the “inhibition … in vitro competition experiments” value is listed as “active in in vitro inhibition assays”.

Regarding GEIWFEGC [p4680], the “inhibition … in vitro competition experiments” value is on record as “active in in vitro inhibition assays”.

Still in this assay, the particulars now being: Table 2 (MV-002); OD at 5 ug peptide compared to original peptide.
Take HMRLFFNC [p4670]: the “Inhibition Capacity” value is 1 (Weaker than original epitope (OD of peptide below 4, 6 times of original peptide)).

As to HQKMIFAC [p4675], the “Inhibition Capacity” value is given as 2 (strong inhibition (as original epitope; OD of peptide below 2, 3 times of original peptide)).

Consider GEIYFERC [p4681], for which the “Inhibition Capacity” value was 2 (strong inhibition (as original epitope; OD of peptide below 2, 3 times of original peptide)).

On to GEIWFEGC [p4680], for which the “Inhibition Capacity” value is reported as 2 (strong inhibition (as original epitope; OD of peptide below 2, 3 times of original peptide)).

The target of another assay is monoclonal antibody MV-001. The experiment in a line: inhibition ELISA, competitor coated original epitope p4371; code 1 = weaker than original epitope.
Settings: not given
For NWFPHPC [p4392], the OD at 10 ug peptide relative to OD of original peptide (inhibition ELISA) is 2 to 3 fold.

The next assay deals with p4377. The experiment in a line: Mimotope vaccination, serum ELISA against p4377. The format is in vivo, C57/B16 mice. The note with it: peptide-KLH vaccines with alum; FIG. 24. Here is the method:
as §1
as §2, with “FIGS. 25” for “FIGS. 15”, “and 26” for “and 16”, “respectively). Titers were calculated as OD max/2 in all figures shown.” for “respectively).”, “FIGS. 23, 24 and 25” for “FIGS. 15 to 17”
For the molecule SHTRLYFC [p4403], the “immune response against original epitope p4377” value is given as “mounted detectable immune responses”.

HMRLFFNC [p4670]: the “immune response against original epitope p4377” value was “mounted detectable immune responses”.

As for HQKMIFAC [p4675], the “immune response against original epitope p4377” value is “mounted detectable immune responses”.

In the case of GEIYFERC [p4681], the “immune response against original epitope p4377” value was “mounted detectable immune responses”.

With GEIWFEGC [p4680], the “immune response against original epitope p4377” value is on record as “mounted detectable immune responses”.

Take EVHHQKLVFC [p4377, reference compound]: the “immune response against original epitope p4377” value is given as “mounted detectable immune responses”.

In a further assay the test system is injected peptide (mimotope-BSA conjugate). The experiment in a line: Mimotope vaccination, serum titer ELISA against injected peptide. The class given is in vivo, C57/B16 mice. The note with it: 30 μg peptide-KLH s.c. with alum, anti-mouse IgG. As for the experimental part: as §1, §2
as §2, with “FIGS. 25” for “FIGS. 15”, “and 26” for “and 16”, “respectively). Titers were calculated as OD max/2 in all figures shown.” for “respectively).”, “FIGS. 23, 24 and 25” for “FIGS. 15 to 17”
As for SHTRLYFC [p4403], the “immune response against injected peptide” value is listed as “elicited immune responses”.

Take HMRLFFNC [p4670]: the “immune response against injected peptide” value was “elicited immune responses”.

HQKMIFAC [p4675]: the “immune response against injected peptide” value was “elicited immune responses”.

Regarding GEIYFERC [p4681], the “immune response against injected peptide” value is “elicited immune responses”.

In the case of GEIWFEGC [p4680], the “immune response against injected peptide” value is given as “elicited immune responses”.

Take EVHHQKLVFC [p4377, reference compound]: the “immune response against injected peptide” value is “elicited immune responses”.

A further assay has as its system irrelevant peptide p1454. Kind of assay: Mimotope vaccination, serum titer ELISA against irrelevant peptide. The format is in vivo, C57/B16 mice. The note with it: 30 μg peptide-KLH s.c. with alum. As for the experimental part: as §1, §2
as §2, with “FIGS. 25” for “FIGS. 15”, “and 26” for “and 16”, “respectively). Titers were calculated as OD max/2 in all figures shown.” for “respectively).”, “FIGS. 23, 24 and 25” for “FIGS. 15 to 17”
For SHTRLYFC [p4403], the “immune response against unrelated sequence (p1454)” value (shortened to “immune response … (p1454)”) was “failed to induce a relevant unspecific immune response”.

Regarding HMRLFFNC [p4670], the “immune response … (p1454)” value is on record as “failed to induce a relevant unspecific immune response”.

Turning to HQKMIFAC [p4675], the “immune response … (p1454)” value was “failed to induce a relevant unspecific immune response”.

For GEIYFERC [p4681], the “immune response … (p1454)” value is on record as “failed to induce a relevant unspecific immune response”.

Take GEIWFEGC [p4680]: the “immune response … (p1454)” value is listed as “failed to induce a relevant unspecific immune response”.

Regarding EVHHQKLVFC [p4377, reference compound], the “immune response … (p1454)” value is “failed to induce a relevant unspecific immune response”.

In the next assay the target is monoclonal antibody MV-002. The experiment in a line: ELISA on peptide-BSA; code 2 = medium binding, OD halfmax 1:40000-320000.
Settings: not given
For GELFFEKC [p4795], the OD halfmax dilution factor of the parental antibody (1:X) (dilutionfactor(1:x)) fell in the range of 40000 to 320000.

Take GQIIFQSC [p4668]: the OD halfmax dilution factor of the parental antibody (1:X) (dilutionfactor(1:x)) was 40000 to 320000.

Regarding GTLIFHHC [p4695], the OD halfmax dilution factor of the parental antibody (1:X) (dilutionfactor(1:x)) was 40000 to 320000.

For the molecule HQKMIFC [p4794], the OD halfmax dilution factor of the parental antibody (1:X) (dilutionfactor(1:x)) lay in the range of 40000 to 320000.

Consider GEIRFELC [p4796], for which the OD halfmax dilution factor of the parental antibody (1:X) (dilutionfactor(1:x)) lay in the range of 40000 to 320000.

Regarding GSLFFWPC [p4688], the OD halfmax dilution factor of the parental antibody (1:X) (dilutionfactor(1:x)) is 40000 to 320000.

In the case of Ac-GEIYFERC [p4804], the OD halfmax dilution factor of the parental antibody (1:X) (dilutionfactor(1:x)) was in the range of 40000 to 320000.

The target of a further assay is monoclonal antibody MV-001. The experiment in a line: ELISA on peptide-BSA; code 1 = weak binding, OD halfmax 1:<4000.
Settings: not given
Consider NWFPHPC [p4392], for which the OD halfmax 1:X (dilution factor of the parental antibody at half-maximal OD) (dilutionfactor(1:x)) is below 4000.

Take TSTEMWHC [p4754]: the OD halfmax 1:X (dilution factor of the parental antibody at half-maximal OD) (dilutionfactor(1:x)) was below 4000.
